# Values joined by “and” are separate entries in the source; they are usually repeats but may differ in a detail not shown here. Equal values may be shown once. Where a SMILES comes first, the peptide text is derived from it. Bridges are numbered along the chain shown (N, C = ends). [ ]: non-standard residue; d: D form. The star is where a group is joined. Ileψ(thiazoline)Cys = CC[C@H](C)[C@H](N)C1=N[C@H](C(=O)*)CS1; dOrn = NCCC[C@@H](N)C(=O)O
# Experiments:
# C. perfringens = system: C. perfringens; set-up: species or system broiler chickens (Cobb 500); details: in vivo
# Clostridium perfringens [1] = system: Clostridium perfringens; set-up: species or system broiler chickens (Cobb 500); details: in vivo
# Clostridium perfringens [2] = assay type: in vivo, broiler chickens; details: subclinical NE
# [3] = raw data of individual birds, 0.5% egg powder, cells marked * removed as outlier
Compound,% NE Mortality (C. perfringens) [bc %],Feed Intake D 0-28 (C. perfringens) [bcd],Lesion Score (0-3) (C. perfringens) [bc],Weight Gain D 0-28 (C. perfringens) [bcd],% NE Mortality (Clostridium perfringens [1]) [bcde %],Feed Intake D 0-28 (Clostridium perfringens [1]) [bc],Lesion Score (0-3) (Clostridium perfringens [1]) [bc],Weight Gain D 0-28 (Clostridium perfringens [1]) [bcd],"Weight gain (g) day 0-6 post challenge, Average (Clostridium perfringens [2]; group average, 0.5% egg powder) [g]","Weight gain (g) day 0-11 post challenge, Average (Clostridium perfringens [2]; group average, 0.5% egg powder) [g]","Lesion Score - day 2 post challenge, Average (Clostridium perfringens [2]; group average, egg powder 0.5% in feed (Vir 20 g/ton), scale 0 to 4)",Weight gain (g) day 0-6 post challenge (Clostridium perfringens [2]; [3]),Weight gain (g) day 0-11 post challenge (Clostridium perfringens [2]; [3]),"Lesion Score - day 2 post challenge (Clostridium perfringens [2]; raw data of individual birds, egg powder 0.5% in feed (Vir 20 g/ton), scale 0 (none) to 4 (high))"
CC[C@H](C)[C@H](N)C1=N[C@H](C(=O)N[C@@H](CC(C)C)C(=O)N[C@H](CCC(=O)O)C(=O)N[C@H](C(=O)N[C@H]2CCCCNC(=O)[C@H](CC(N)=O)NC(=O)[C@@H](CC(=O)O)NC(=O)[C@H](Cc3cnc[nH]3)NC(=O)[C@@H](Cc3ccccc3)NC(=O)[C@H]([C@@H](C)CC)NC(=O)[C@@H](CCCN)NC2=O)[C@@H](C)CC)CS1 [bacitracin] ({Ileψ(thiazoline)Cys}-L[dE]IK[dOrn]I[dF]H[dD]N; lactam 4-C),9.4,6.708,1.3,0.648,10.9,8.040,1.0,0.590,,,,,,
Virginiamycin,,,,,,,,,226,570,0.5,267 g and 211 g (2×) and 256 g and 252 g and 170 g and 213 g and 289 g and 162 g (2×) and 229 g and 241 g and 203 g and 157 g and 195 g and 238 g and 321 g and 233 g and 319 g and 182 g and 239 g,618 g and 554 g and 520 g and 540 g and 467 g and 479 g and 544 g and 566 g and 420 g and 552 g and 607 g and 686 g and 568 g and 723 g and 709 g,1 (3×) and 0 (3×)
